Reference: publication PMC7092364 (European journal of medicinal chemistry, 2017)
Marks after values point to notes of the source that are not given here.

Assays:
[1] = biological target: full-length recombinant NC (1–55) (Human immunodeficiency virus type 1 group M subtype B, UniProt P12493); assay: Non-denaturing ESI-MS binding and binding competition with NC; design: species or system HIV-1 LAI strain; conditions: for complex formation with NC (ESI-MS): 5 μM NC, ten-fold compound concentration
NC(11–55) peptide = NC(11–55) peptide (Human immunodeficiency virus type 1 group M subtype B, UniProt P04591, I389N); assay: Nucleic acid destabilization assay; format: biochemical, HIV-1 MAL strain; conditions: 200 μM of compound
MT-2 cells = format: cell-based; conditions: human, 72 h

Row | SMILES | complex formation with NC (ESI-MS) [1] | affinity of 5–06 for NC relative to compound 5 ([1]; from fractional occupancies) | inhibition of the NC-induced cTAR55 destabilization (NC(11–55) peptide) | TD50 (MT-2 cells)
1 | Cc1ccc(NS(=O)(=O)c2ccc3oc(=O)[nH]c3c2)c(C)c1 [compound 5, N-(2,4-dimethylphenyl)-2-oxo-2,3-dihydro-1,3-benzoxazole-5-sulfonamide] | stable 1:1 complexes |  |  | 
2 | O=c1[nH]c2cc(S(=O)(=O)Nc3ccc4[nH]ncc4c3)ccc2o1 [5–06, N-(1H-indazol-5-yl)-2-oxo-2,3-dihydro-1,3-benzoxazole-5-sulfonamide] | stable 1:1 complexes | two to three-fold higher affinity | by half | 140^# (75.0–378.0) μM
